Like-named read-outs stand apart in the source and are kept apart here.
Tested on: Escherichia coli (ATCC25922) or Staphylococcus aureus (ATCC25923)
Assay: Antibacterial MIC, microdilution method in Mueller-Hinton medium
Assay type: cell-based
Conditions: for MIC: Escherichia coli, 18 h, read-out: Potency (MIC)
Summary of the method: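 Read after 18 h incubation at 35° C, MIC is the lowest compound level that blocked growth. Compounds were tested in duplicate over 64–0.5 μg/ml two-fold dilutions using Mueller-Hinton microdilution per NCCLS standard.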

[1] = MIC in E. coli or S. aureus, two-fold serial dilutions 64 to 0.5 μg/ml in duplicate, 18 hours of incubation at 35° C.

| Molecule | MIC | also measured |
| --- | --- | --- |
| N[C@@H]1C[C@H](N)CN(c2nc(Nc3ccc(NC(=O)c4cccc([N+](=O)[O-])c4O)cc3O)nc(N3C[C@H](N)C[C@H](N)C3)n2)C1 [N-[2-hydroxy-4-(2-hydroxy-3-nitro-benzoylamino)-phenyl]-4,6-Bis-((3R,5S)-3,5-diamino-piperidin-1-yl)-[1,3,5]triazine-2-amine] | < 64 µg/mL |  |
| CCCCCCCCCC(=O)Nc1ccc(Nc2nc(N3C[C@H](N)C[C@H](N)C3)nc(N3C[C@H](N)C[C@H](N)C3)n2)cc1O [N-(4-decanoylamino-3-hydroxy-phenyl)-4,6-Bis-((3R,5S)-3,5-diamino-piperidin-1-yl)-[1,3,5]triazine-2-amine] | < 16 µg/mL |  |
| Cc1cc(=O)oc2cc(Nc3nc(N4C[C@H](N)C[C@H](N)C4)nc(N4C[C@H](O)C[C@@H](O)C4)n3)ccc12 [7-[4-((3R,5S)-3,5-Diamino-piperidin-1-yl)-6-((3R,5R)-3,5-dihydroxy-piperidin-1-yl)-[1,3,5]triazin-2-ylamino]-4-methyl-chromen-2-one] | > 64 µg/mL |  |
| N[C@@H]1C[C@H](N)CN(c2nc(Nc3ccc(C(=O)CC(=O)Nc4ccccc4C(F)(F)F)cc3)nc(N3C[C@H](N)C[C@H](N)C3)n2)C1 [N-{4-[2-(2-trifluoromethyl-phenylcarbamoyl)-acetyl]-phenyl}-4,6-Bis-((3R,5S)-3,5-diamino-piperidin-1-yl)-[1,3,5]triazine-2-amine] | < 64 µg/mL |  |
| Cc1cccc(Nc2nc(N3C[C@H](N)C[C@H](N)C3)nc(N3C[C@H](N)C[C@H](N)C3)n2)n1 [N-(6-methyl-pyridin-2-yl)-4,6-Bis-((3R,5S)-3,5-diamino-piperidin-1-yl)-[1,3,5]triazine-2-amine] | > 64 µg/mL |  |
| Cc1cc(Nc2nc(N3C[C@H](N)C[C@H](N)C3)nc(N3C[C@H](N)C[C@H](N)C3)n2)ccc1NC(=O)c1cccc(C)c1O [N-[4-(2-hydroxy-3-methyl-benzoylamino)-3-methyl-phenyl]-4,6-Bis-((3R,5S)-3,5-diamino-piperidin-1-yl)-[1,3,5]triazine-2-amine] | < 64 µg/mL |  |
| Cc1ccc(S(=O)(=O)N(Cc2ccccc2)c2ccc(Nc3nc(NC4CCCNC4)nc(N4C[C@H](N)C[C@H](N)C4)n3)cc2O)cc1 (stereo partly drawn) [N-Benzyl-N-{4-[4-((3R,5S)-3,5-diamino-piperidin-1-yl)-6-(piperidin-3-ylamino)-[1,3,5]triazin-2-ylamino]-2-hydroxy-phenyl}-4-methyl-benzenesulfonamide] | < 64 µg/mL |  |
| N[C@@H]1C[C@H](N)CN(c2nc(Nc3ccc(NC(=O)c4ccc5ccccc5c4O)cc3)nc(N3CCC[C@@H](O)C3)n2)C1 [1-Hydroxy-naphthalene-2-carboxylicacid {4-[4-((3S,5R)-3,5-diamino-piperidin-1-yl)-6-((R)-3-hydroxy-piperidin-1-yl)-[1,3,5]triazin-2-ylamino]-phenyl}-amide] | < 64 µg/mL |  |
| Cl.Nc1nc(N2C[C@H](N)C[C@H](N)C2)nc(N2C[C@H](N)C[C@H](N)C2)n1 [4,6-Bis-((3R,5S)-3,5-diamino-piperidin-1-yl)-[1,3,5]triazin-2-ylamine] |  | MIC [1]: > 64 µg/mL |
| Nc1ccc(Nc2nc(N3C[C@H](N)C[C@H](N)C3)nc(N3C[C@H](N)C[C@H](N)C3)n2)cc1OCc1ccccc1 [N-(4-amino-3-benzyloxy-phenyl)-4,6-Bis-((3R,5S)-3,5-diamino-piperidin-1-yl)-[1,3,5]triazine-2-amine] | > 64 µg/mL |  |
| COc1ccc(Nc2ccc(Nc3nc(N4C[C@H](N)C[C@H](N)C4)nc(N4C[C@H](N)C[C@H](N)C4)n3)cc2)cc1 [N-[4-(4-methoxy-phenylamino)-phenyl]-4,6-Bis-((3R,5S)-3,5-diamino-piperidin-1-yl)-[1,3,5]triazine-2-amine] |  | MIC [1]: < 64 µg/mL |
| N[C@@H]1C[C@H](N)CN(c2nc(Nc3ccc(C(=O)CC(=O)Nc4ccc(Cl)cc4F)cc3)nc(N3C[C@H](N)C[C@H](N)C3)n2)C1 [N-{4-[2-(4-chloro-2-fluoro-phenylcarbamoyl)-acetyl]-phenyl}-4,6-Bis-((3R,5S)-3,5-diamino-piperidin-1-yl)-[1,3,5]triazine-2-amine] | < 16 µg/mL |  |
| NC[C@@H]1C[C@H](N)CN1c1nc(Nc2ccc(NC(=O)C(=O)c3c[nH]c4ccccc34)c(O)c2)nc(N2C[C@H](N)C[C@H](N)C2)n1 [N-{4-[4-((2S,4S)-44-Amino-2-aminomethyl-pyrrolidin-1-yl)-6-((3R,5S)-3,5-diamino-piperidin-1-yl)-[1,3,5]triazin-2-ylamino]-2-hydroxy-phenyl}-2-(1H-indol-3-yl)-2-oxo-acetamide] |  | Potency (MIC) [1]: ++ (++ means MIC<16 μg/ml in E. coli or S. aureus) |
| COc1ccc(O)c(C(=O)Nc2ccc(Nc3nc(N4C[C@H](N)C[C@H](N)C4)nc(N4C[C@H](N)C[C@H](N)C4)n3)cc2O)c1 [N-[3-hydroxy-4-(2-hydroxy-5-methoxy-benzoylamino)-phenyl]-4,6-Bis-((3R,5S)-3,5-diamino-piperidin-1-yl)-[1,3,5]triazine-2-amine] | < 16 µg/mL |  |
| N-[4-(cyclohexanecarbonyl-amino)-3-hydroxy-phenyl]-4,6-Bis-((3R,5S)-3,5-0diamino-piperidin-1-yl)-[1,3,5]triazine-2-amine |  | Potency (MIC) [1]: + (+ means MIC<64 μg/ml in E. coli or S. aureus) |
| N[C@@H]1C[C@H](N)CN(c2nc(NNc3cccc(C(F)(F)F)c3)nc(N3C[C@H](N)C[C@H](N)C3)n2)C1 [N-(4,6-Bis-((3R,5S)-3,5-diamino-piperidin-1-yl)-[1,3,5]triazin-2-yl)-N′-(3-Trifluoromethyl-phenyl)-hydrazine] | < 64 µg/mL |  |
| N[C@@H]1C[C@H](N)CN(c2nc(Nc3ccc(NC(=O)Cc4ccccc4)c(O)c3)nc(N3C[C@H](N)C[C@H](N)C3)n2)C1 [N-(3-hydroxy-4-phenylacetylamino-phenyl)-4,6-Bis-((3R,5S)-3,5-diamino-piperidin-1-yl)-[1,3,5]triazine-2-amine] |  | MIC [1]: < 64 µg/mL |
| CC(C)CC(=O)Nc1ccc(Nc2nc(N3CCCCC3)nc(N3CCCCC3)n2)cc1O.Cl [N-[3-hydroxy-4-(3-methyl-butyrylamino)-phenylk]-4,6-Bis-((3R,5S)-3,5-diamino-piperidin-1-yl)-[1,3,5]triazine-2-amine] |  | MIC [1]: < 64 µg/mL |
| NC[C@@H]1CN(c2nc(Nc3ccc4c(c3)-c3ccccc3C4=O)nc(N3C[C@H](N)C[C@H](N)C3)n2)CC[C@@H]1O [3-[4-((3R,4S)-3-Aminomethyl-4-hydroxy-piperidin-1-yl)-6-((3R,5S)-3,5-diamino-piperidin-1-yl)-[1,3,5]triazin-2-ylamino]-fluoren-9-one] | > 64 µg/mL |  |
| N[C@@H]1C[C@H](N)CN(c2nc(Nc3ccc(S(=O)(=O)Nc4ccc5cn[nH]c5c4)cc3)nc(N3C[C@H](O)C[C@@H](O)C3)n2)C1 [4-[4-((3S,5R)-3,5-Diamino-piperidin-1-yl)-6-((3R,5R)-3,5-dihydroxy-piperidin-1-yl)-[1,3,5]triazin-2-ylamino]-N-(1H-indazol-6-yl)-benzenesulfonamide] | > 64 µg/mL |  |
| Cl.O=S(=O)(c1cc(Nc2nc(N3CCCCC3)nc(N3CCCCC3)n2)ccc1N1CCOCC1)N1CCOCC1 [N-[3-morpholine-4-sulfonyl)-4-morpholin-4-yl-phenyl]-4,6-Bis-((3R,5S)-3,5-diamino-piperidin-1-yl)-[1,3,5]triazine-2-amine] |  | MIC [1]: > 64 µg/mL |
| NC1CN(c2nc(Nc3ccc(NC(=O)c4ccc(Cl)cc4)c(O)c3)nc(N3C[C@H](N)C[C@H](N)C3)n2)C1 [N-{4-[4-(3-Amino-azetidin-1-yl)-6-((3R,5S)-3,5-diamino-piperidin-1-yl)-[1,3,5]triazin-2-ylamino]-2-hydroxy-phenyl}-4-chloro-benzamide] | < 16 µg/mL |  |
| COc1ccc(NC(=O)c2ccc(Nc3nc(N4C[C@H](N)C[C@H](N)C4)nc(N4C[C@H](N)C[C@H](N)C4)n3)cc2O)cc1 [N-[3-hydroxy-4-(4-methoxy-phenylcarbamoyl)-phenyl]-4,6-Bis-((3R,5S)-3,5-diamino-piperidin-1-yl)-[1,3,5]triazine-2-amine] | < 64 µg/mL |  |
| N[C@@H]1C[C@H](N)CN(c2nc(Nc3cccc(NC(=O)c4cccc([N+](=O)[O-])c4O)c3)nc(N3C[C@H](N)C[C@H](N)C3)n2)C1 [N-[3-(2-hydroxy-3-nitro-benzoylamino)-phenyl]-4,6-Bis-((3R,5S)-3,5-diamino-piperidin-1-yl)-[1,3,5]triazine-2-amine] | < 16 µg/mL |  |
| C#Cc1cccc(Nc2nc(N3CCCCC3)nc(N3CCCCC3)n2)c1.Cl [N-(3-ethylnyl-phenyl)-4,6-Bis-((3R,5S)-3,5-diamino-piperidin-1-yl)-[1,3,5]triazine-2-amine] |  | MIC [1]: > 64 µg/mL |
| CC(=O)c1ccc(Nc2nc(N3CCCCC3)nc(N3CCCCC3)n2)cc1.Cl [1-{4-[4-((3R,4S)-3-Aminomethyl-4-hydroxy-piperidin-1-yl)-6-((3R,5S)-3,5-diamino-piperidin-1-yl)-[1,3,5]triazin-2-ylammino]-phenyl}-ethanone] |  | MIC [1]: > 64 µg/mL |
| N[C@@H]1C[C@H](N)CN(c2nc(Nc3ccc(NC(=O)c4cc(OC(F)(F)F)ccc4O)cc3)nc(N3C[C@H](N)C[C@H](N)C3)n2)C1 [N-[4-(2-hydroxy-5-trifluoromethoxy-benzoylamino)-phenyl]-4,6-Bis-((3R,5S)-3,5-diamino-piperidin-1-yl)-[1,3,5]triazine-2-amine] | < 16 µg/mL |  |
| CC(C)(C)C(=O)Nc1ccc(Nc2nc(N3CCCCC3)nc(N3CCCCC3)n2)cc1O.Cl [N-[4-(2,2-dimethyl-propionylammino)-3-hydroxy-phenyl]-4,6-Bis-((3R,5S)-3,5-diamino-piperidin-1-yl)-[1,3,5]triazine-2-amine] |  | MIC [1]: < 64 µg/mL |
| NC[C@@H]1C[C@H](N)CN1c1nc(Nc2ccc(NC(=O)c3ccc4ccccc4c3O)cc2)nc(N2C[C@H](N)C[C@H](N)C2)n1 [1-Hydroxy-naphthalene-2-carboxylic acid {4-[4-((2S,4S)-4-amino-2-aminomethyl-pyrrolidin-1-yl)-6-((3R,5S)-3,5-diamino-piperidin-1-yl)-[1,3,5]triazine-2-ylamino]-phenyl}-amide] | < 16 µg/mL |  |
